Key:
[1] = target: T1, PglB (Campylobacter jejuni subsp. jejuni serotype O:2, UniProt Q0P9C8); experiment: In vitro glycosylation of AcrA protein by PglB, ES-MS analysis; assay type: biochemical; set-up: 10His (C); made in house; host or cells: E. coli Rosetta; details: AcrA-His6 129 pmol, glycolipid 25.6 nmol, 25° C., 36 hours
From the text: Using the process described in Example 6a the two consensus Asn sites in the C. jejuni AcrA protein (overexpressed and purified from E. coli using pET24 (AcrA-Cys) according to the literature protocol [Kowarik, M. et. al., Science, 2006, 314, 1148-1150; Lazar, M. N. et. al., Glycobiology, 2005, 15 (4), 361-367]) were glycosylated using glycolipid substrates (Examples 2 and 4).

[2] = target: T1, PglB; details: glycolipid 1-200 μM, peptide 20 μM, PglB 0.44 μM, reaction time <2 h, duplicate
Experimental: Reaction mixtures were prepared as described above in Example 6 and incubated in a thermo cycler for 2 h at 30° C. Glycosylation was terminated by flash increasing of temperature to 95° C. for 2 minutes. Peptide mixtures were cleaned up and subjected to UPLC. The separation of the glycosylated peptide from unglycosylated was achieved by normal phase using Waters Acquity UPLC column (BEH glycan, 2.1×150 mm, 1.7-μm particles). Concentration of un- and glycosylated peptides was measured by calculating the area of corresponding peaks (FIG. 3.)

[3] = target: T1, PglB; experiment: Synthetic optimization of peptide glycosylation by PglB, HPLC/LC-MS conversion; assay type: biochemical; set-up: 10His (C); made in house; host or cells: E. coli Rosetta; details: peptide:glycolipid 1:5, RT overnight, HPLC peak areas, FIG. 2a
Experimental: To a 10 μL of purified PglB (40 μM) in 1.5 mL eppendorf tube was added 34 μL of buffer (HEPES 10 mM, pH 7.5 containing 1 mM MnCl2 and 1% Triton-X 100). […] For the gel analysis, 8 μL of reaction mixture was treated with 2 μL of 4X SDS sample buffer and heated to 90° C. for 5 minutes. Analytical HPLC was carried out on a Waters 2795 separation module HPLC instrument equipped with a Jasco FP-920 Intelligent Fluorescent Detector (Excitation at 542 nm, Emission at 572 nm). Phenomenex Jupiter 4μ proteo 90A (250×4.6 mm) column was used with a gradient of 0-20%, 20-45%, 45-95% Acetonitrile with 0.1% formic acid at a flow rate of 1 ml/min. Product eluted with a retention time of 6.6 min and identification was performed using the Micromass LCT (TOF ESI). Conversion of the reaction was quantified by integration of the respective peak areas of product and remaining starting peptide.

T1 sequence (Q0P9C8 whole entry): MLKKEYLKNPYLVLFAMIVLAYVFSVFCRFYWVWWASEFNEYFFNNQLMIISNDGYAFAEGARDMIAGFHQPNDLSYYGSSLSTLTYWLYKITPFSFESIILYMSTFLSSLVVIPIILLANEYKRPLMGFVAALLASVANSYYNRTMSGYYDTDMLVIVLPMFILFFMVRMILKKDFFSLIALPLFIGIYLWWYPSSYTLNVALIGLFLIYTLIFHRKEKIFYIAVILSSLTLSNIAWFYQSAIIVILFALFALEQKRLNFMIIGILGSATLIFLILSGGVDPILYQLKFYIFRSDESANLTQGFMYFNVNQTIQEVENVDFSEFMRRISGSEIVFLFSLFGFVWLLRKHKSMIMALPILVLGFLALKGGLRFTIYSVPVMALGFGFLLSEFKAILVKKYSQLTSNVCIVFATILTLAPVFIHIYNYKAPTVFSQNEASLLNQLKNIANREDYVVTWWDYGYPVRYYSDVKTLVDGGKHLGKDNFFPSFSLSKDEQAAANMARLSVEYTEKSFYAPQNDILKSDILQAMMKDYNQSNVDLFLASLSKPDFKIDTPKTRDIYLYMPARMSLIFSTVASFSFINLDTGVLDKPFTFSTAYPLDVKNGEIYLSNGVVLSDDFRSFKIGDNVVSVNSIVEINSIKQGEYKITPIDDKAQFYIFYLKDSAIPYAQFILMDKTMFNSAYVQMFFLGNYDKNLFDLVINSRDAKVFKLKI

SMILES	conversion to the diglycosylated AcrA protein [1] [%]	Km [2] [µM]	kcat [2] [s⁻¹]	conversion, optimised glycosylation of TAMRA-peptide [3] [%]
CC(=O)NC1[C@@H](OP(=O)([O-])OP(=O)([O-])OC/C=C(/C)CC/C=C(/C)CC/C=C(/C)CC/C=C(/C)CC/C=C(\C)CCC=C(C)C)OC(CO)[C@@H](O)[C@@H]1O.[Na+].[Na+] (stereo partly drawn) [Example 4, P^1-2-Acetamido-2-deoxy-α-D-glucopyranosyl P^2-(2Z,6Z,10Z,14Z,18E)-3,7,11,15,19,23-hexamethyltetraicosa-2,6,10,14,18,22-hexaen-1-yl diphosphate]	> 95	55 ± 10	0.000385 ± 2.67e-05	92
CC(=O)NC1C(O)[C@H](O)C(CO)O[C@@H]1OP(=O)(O)OP(=O)(O)OC/C=C(/C)CC/C=C(/C)CC/C=C(/C)CC/C=C(/C)CC/C=C(/C)CC/C=C(\C)CC/C=C(\C)CCC=C(C)C (stereo partly drawn) [Comparative Example 5, P^1-2-Acetamido-2-deoxy-α-D-glucopyranosyl P^2-(2Z,6Z,10Z,14Z,18Z,22E,26E)-3,7,11,15,19,23,27,31-octamethyldotriaconta-2,6,10,14,18,22,26,30-octaen-1-yl diphosphate, reference compound]	–	34 ± 10	0.000375 ± 3.5e-05	–
CC(=O)NC1[C@@H](OP(=O)(O)OP(=O)(O)OC/C=C(/C)CC/C=C(/C)CC/C=C(/C)CCC=C(C)C)OC(CO)[C@@H](O)[C@@H]1O (stereo partly drawn) [Example 1, P^1-2-Acetamido-2-deoxy-α-D-glucopyranosyl P^2-(2Z,6Z,10Z)-3,7,11,15-tetramethyl hexadeca-2,6,10,14-tetraen-1-yl diphosphate]	–	77 ± 16	0.00039 ± 3.5e-05	–
